Measurements as given in PubChem BioAssay AID2060493 (Molecular Pharmacology Branch, DTP, NCI, 2025).
“And” between values parts separate entries of the source, which are not always exact repeats. Equal values may be shown once. Values belong to the molecule of their own block, whether it stands above or below them.

Test system: 616215-338-R-J1-PDC tumor spheroids, viability
Assay: Anticancer human tumor 616215-338-R-J1-PDC patient-derived colon adenocarcinoma cell line growth inhibition [GQUAD]
Settings: spheroids with HUVEC and MSC; for viability, T/C: stronger effect = lower value
Source text: DNA G-quadruplex Stabilizer Agents in Combinations in Complex Spheroids
A high-throughput screen of multi-cell type tumor spheroids was designed to identify active combinations of DNA G-quadruplex stabilizer agents and targeted small molecules. Complex spheroids include a stromal component modeled by human endothelial cells (HUVEC) and fibroblasts modeled by human mesenchymal stem cells (MSCs). The concentration ranges selected for each drug and investigational agent were based upon clinically achievable concentrations if the clinical Cmax of the agent was known.
Compounds. The drugs and investigational agents: pidnarulex (CX-5461; NSC782164), APTO-253 (NSC789042), BRACO-19 (NSC847499), peposertib (NSC802822), ceralasertib (NSC780249), elimusertib (NSC800525), camonsertib (NSC841442), AZD-1390 (NSC803789), olaparib (NSC753686), talazoparib (NSC767125), ART-558 (NSC835418), sotorasib (NSC818433), MRTX-1133 (NSC836407), SN-38 (NSC673596), topotecan (NSC609699), etoposide (NSC141540), doxorubicin (NSC123127), gemcitabine (NSC613327), 5-fluorouracil (NSC19893), paclitaxel (NSC125973), vemurafenib (NSC761431), panobinostat (NSC761190), R-306465 (JNJ-16241199; NSC773264), adavosertib (NSC754352), TP-3654 (NSC805149), carboplatin (NSC241240), KSQ-4279 (NSC840948), and staurosporine (NSC755774) were obtained from the National Cancer Institute (NCI) Developmental Therapeutics Program Chemical Repository (34). The FDA-approved anticancer drug set is available from the NCI Developmental Therapeutics Program. […] The stock solutions were prepared in dimethyl sulfoxide (DMSO, Sigma-Aldrich, St. Louis, MO, cat. D2650) at 800-fold the tested concentration and stored at -70 degrees C prior to their use. All drugs and investigational agents were tested over a range starting from a high concentration at or near the clinical Cmax and decreasing in half-log increments. If the clinical Cmax for an agent had not been determined, the highest concentration tested was 10 microM.
2.3 Cell Culture. All cells were maintained in an incubator at 37 degrees C and 5% CO2 with 95% humidity. The PDC lines were cultured according to standard operating procedures established by the NCI PDMR. All PDCs were thawed and cultured in Matrigel-coated flasks prepared with a working solution of 1X Ham's F-12 nutrient mix, without supplementation (Invitrogen, cat. 11765054), 100 U/mL penicillin-streptomycin (Invitrogen, cat. 15140122), and 2.5% Matrigel (Corning Inc., cat. 354248) for the first three passages. The 857933-349-R-J2-PDC line was cultured in 6C/Colon 1B media, which includes advanced DMEM/F-12 (Thermo Fisher Scientific, cat. 12634028), 10 mM HEPES (Thermo Fisher Scientific, cat. 15630080), 1X GlutaMAX supplement (Thermo Fisher Scientific, cat. 35050061), 0.1 mg/mL primocin (InvivoGen, cat. ant-pm-2), 10% defined fetal bovine serum, heat inactivated (HyClone Laboratories Inc., cat. SH30070.03HI), 50% L-WRN conditioned media (ATCC, cat. CRL-3276), 1.25 mM N-Acetyl-L-cysteine (Sigma-Aldrich, cat. A9165), 10 mM nicotinamide (Sigma-Aldrich, cat. N0636), 1X B-27 supplement (Thermo Fisher Scientific, cat. 17504044), 1X N-2 supplement (Thermo Fisher Scientific, cat. 17502048), 10 microM Y-27632 dihydrochloride (Tocris Bioscience, cat. 1254), and 50 ng/mL human EGF recombinant protein (Thermo Fisher Scientific, cat. PHG0311). The 485176-168-R4-J1-PDC line was cultured in Panc media, which includes all 6C/Colon 1B media components plus 100 ng/mL human FGF-10 (Thermo Fisher Scientific, cat. 100-26), 500 nM SB-431542 (Selleckchem, cat. S1067), and gastrin (Tocris, cat. 3006).
[…]

[1] = curve of first compound, second compound 0.0316 µM
[2] = curve of first compound, second compound 0.1 µM
[3] = curve of first compound, second compound 0.316 µM
[4] = curve of first compound, second compound 1 µM
[5] = curve of first compound, second compound 3.16 µM
[6] = curve of first compound, second compound 10 µM
[7] = second compound 0.0316 µM, first compound 0.0316 µM
[8] = second compound 0.0316 µM, first compound 0.1 µM
[9] = second compound 0.0316 µM, first compound 0.316 µM
[10] = second compound 0.0316 µM, first compound 1 µM
[11] = second compound 0.0316 µM, first compound 3.16 µM
[12] = second compound 0.0316 µM, first compound 10 µM
[13] = second compound 0.1 µM, first compound 0.0316 µM
[14] = second compound 0.1 µM, first compound 0.1 µM
[15] = second compound 0.1 µM, first compound 0.316 µM
[16] = second compound 0.1 µM, first compound 1 µM
[17] = second compound 0.1 µM, first compound 3.16 µM
[18] = second compound 0.1 µM, first compound 10 µM
[19] = second compound 0.316 µM, first compound 0.0316 µM
[20] = second compound 0.316 µM, first compound 0.1 µM
[21] = second compound 0.316 µM, first compound 0.316 µM
[22] = second compound 0.316 µM, first compound 1 µM
[23] = second compound 0.316 µM, first compound 3.16 µM
[24] = second compound 0.316 µM, first compound 10 µM
[25] = second compound 1 µM, first compound 0.0316 µM
[26] = second compound 1 µM, first compound 0.1 µM
[27] = second compound 1 µM, first compound 0.316 µM
[28] = second compound 1 µM, first compound 1 µM
[29] = second compound 1 µM, first compound 3.16 µM
[30] = second compound 1 µM, first compound 10 µM
[31] = second compound 3.16 µM, first compound 0.0316 µM
[32] = second compound 3.16 µM, first compound 0.1 µM
[33] = second compound 3.16 µM, first compound 0.316 µM
[34] = second compound 3.16 µM, first compound 1 µM
[35] = second compound 3.16 µM, first compound 3.16 µM
[36] = second compound 3.16 µM, first compound 10 µM
[37] = second compound 10 µM, first compound 0.0316 µM
[38] = second compound 10 µM, first compound 0.1 µM
[39] = second compound 10 µM, first compound 0.316 µM
[40] = second compound 10 µM, first compound 1 µM
[41] = second compound 10 µM, first compound 3.16 µM
[42] = second compound 10 µM, first compound 10 µM
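Also: spheroids exposed to agents for 7 days before readout.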
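For viability, T/C in this document: percent viability relative to DMSO vehicle control wells taken as 100%.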

IC50 (compound alone, run of 04/22/2024): > 10 µM
SMILES: CN(C)c1ccc(Nc2c3ccc(NC(=O)CCN4CCCC4)cc3nc3cc(NC(=O)CCN4CCCC4)ccc23)cc1
viability, T/C (compound 0.0316 µM): 105% [middle of 12 runs]
viability, T/C (compound 0.1 µM): 104% [middle of 12 runs]
viability, T/C (compound 0.316 µM): 102% [middle of 12 runs]
viability, T/C (compound 1 µM): 100% [middle of 12 runs]
viability, T/C (compound 3.16 µM): 99.6% [middle of 12 runs]
viability, T/C (compound 10 µM): 93.9% [middle of 12 runs]

IC50 (curve of compound): > 10 µM
SMILES: Cc1cccc(N(C)C(=O)C2C(O)CCN2c2nc(C)cc(C(F)(F)F)c2C#N)c1 (centres undefined)
viability, T/C (compound 0.0316 µM): 91.4% and 99.2% and 101%
viability, T/C (compound 0.1 µM): 106% and 94.5% and 102%
viability, T/C (compound 0.316 µM): 94.1% and 103% and 102%
viability, T/C (compound 1 µM): 94% and 96.9% and 105%
viability, T/C (compound 3.16 µM): 102% and 98.7% and 113%
viability, T/C (compound 10 µM): 102% and 92.6% and 103%

IC50 (curve of compound): 0.411 µM and 0.47 µM and 0.878 µM
SMILES: COc1cccc2c1C(=O)c1c(O)c3c(c(O)c1C2=O)CC(O)(C(=O)CO)CC3OC1CC(N)C(O)C(C)O1 (centres undefined)
viability, T/C (compound 0.0316 µM): 99.9% and 99.3% and 97.8%
viability, T/C (compound 0.1 µM): 86.1% and 94.3% and 81%
viability, T/C (compound 0.316 µM): 45.8% and 52.1% and 60.8%
viability, T/C (compound 1 µM): 33.6% and 31% and 57.7%
viability, T/C (compound 3.16 µM): 24.8% and 24.6% and 27.7%
viability, T/C (compound 10 µM): 1.26% and 0.35% and 6.04%

Continued, molecule first:

SMILES: Cc1[nH]c2ccccc2c1CCNCc1ccc(/C=C/C(=O)NO)cc1
viability, T/C (compound 0.000999 µM): 103% and 102% and 97.5%
viability, T/C (compound 0.00316 µM): 95.9% and 93.8% and 101%
viability, T/C (compound 0.00999 µM): 92.1% and 107% and 103%
viability, T/C (compound 0.0316 µM): 108% and 94.3% and 87.4%
viability, T/C (compound 0.0999 µM): 69.3% and 72.3% and 79.7%
viability, T/C (compound 0.316 µM): 17.6% and 10.8% and 27.7%
IC50 (curve of compound): 0.154 µM and 0.151 µM and 0.189 µM

SMILES: CC1COCCN1c1cc(-c2ccnn2C)c2ccnc(-c3ccn[nH]3)c2n1 (centres undefined) + Cc1[nH]c2ccc(F)cc2c1-c1nc2c3cccnc3c3ncccc3c2[nH]1
IC50 [1]: 0.224 µM
IC50 [2]: 0.139 µM
IC50 [3]: 0.185 µM
IC50 [4]: 0.17 µM
IC50 [5]: 0.14 µM
IC50 [6]: 0.14 µM
viability, T/C [7]: 96.6%
viability, T/C [8]: 70.7%
viability, T/C [9]: 41.7%
viability, T/C [10]: 25.1%
viability, T/C [11]: 30.2%
viability, T/C [12]: 20.1%
viability, T/C [13]: 97.8%
viability, T/C [14]: 56.3%
viability, T/C [15]: 34.1%
viability, T/C [16]: 25.2%
viability, T/C [17]: 24.9%
viability, T/C [18]: 19.9%
viability, T/C [19]: 91.5%
viability, T/C [20]: 62.1%
viability, T/C [21]: 40%
viability, T/C [22]: 27.7%
viability, T/C [23]: 22.6%
viability, T/C [24]: 23.9%
viability, T/C [25]: 91.5%
viability, T/C [26]: 63%
viability, T/C [27]: 33.6%
viability, T/C [28]: 32.2%
viability, T/C [29]: 22.9%
viability, T/C [30]: 24.7%
viability, T/C [31]: 91.9%
viability, T/C [32]: 57.9%
viability, T/C [33]: 30.2%
viability, T/C [34]: 26.1%
viability, T/C [35]: 21.2%
viability, T/C [36]: 17.9%
viability, T/C [37]: 90.1%
viability, T/C [38]: 50%
viability, T/C [39]: 40.3%
viability, T/C [40]: 31.5%
viability, T/C [41]: 22.6%
viability, T/C [42]: 16.4%

SMILES: CC1COCCN1c1cc(C2(O)CC3CCC(C2)O3)c2cnn(-c3ccn[nH]3)c2n1 (centres undefined)
viability, T/C (compound 0.0316 µM): 95.2% and 102% and 99.8%
viability, T/C (compound 0.1 µM): 60.7% and 60.2% and 55.6%
viability, T/C (compound 0.316 µM): 45.5% and 31.8% and 40.3%
viability, T/C (compound 1 µM): 34.9% and 39.4% and 31.6%
viability, T/C (compound 3.16 µM): 21.1% and 23.5% and 21.3%
viability, T/C (compound 10 µM): 23.2% and 16.9% and 12.9%
IC50 (curve of compound): 0.217 µM and 0.171 µM and 0.175 µM

SMILES: COc1ncnc(C2CC2)c1-c1ncc2cnn(Cc3ccc(-c4nc(C(F)(F)F)cn4C(C)C)cc3)c2n1 + Cc1[nH]c2ccc(F)cc2c1-c1nc2c3cccnc3c3ncccc3c2[nH]1
IC50 [1]: > 10 µM
IC50 [2]: > 10 µM
IC50 [3]: > 10 µM
IC50 [4]: > 10 µM
IC50 [5]: > 10 µM
IC50 [6]: > 10 µM
viability, T/C [7]: 109%
viability, T/C [8]: 98.5%
viability, T/C [9]: 106%
viability, T/C [10]: 91.9%
viability, T/C [11]: 106%
viability, T/C [12]: 101%
viability, T/C [13]: 108%
viability, T/C [14]: 93.7%
viability, T/C [15]: 96.1%
viability, T/C [16]: 98.2%
viability, T/C [17]: 100%
viability, T/C [18]: 105%
viability, T/C [19]: 106%
viability, T/C [20]: 96.3%
viability, T/C [21]: 96.5%
viability, T/C [22]: 99.8%
viability, T/C [23]: 103%
viability, T/C [24]: 107%
viability, T/C [25]: 100%
viability, T/C [26]: 97.9%
viability, T/C [27]: 96.5%
viability, T/C [28]: 101%
viability, T/C [29]: 108%
viability, T/C [30]: 99.8%
viability, T/C [31]: 101%
viability, T/C [32]: 104%
viability, T/C [33]: 94.7%
viability, T/C [34]: 105%
viability, T/C [35]: 109%
viability, T/C [36]: 104%
viability, T/C [37]: 97%
viability, T/C [38]: 90.1%
viability, T/C [39]: 98.4%
viability, T/C [40]: 98.4%
viability, T/C [41]: 98.7%
viability, T/C [42]: 96.3%
